Laboratory results reported in patent publication US9057054B2, “Antigen-specific long-term memory T-cells” (THE REGENTS OF THE UNIVERSITY OF MICHIGAN, priority 2009, dated 2015).

How the values were obtained:
[1] = system: antigen-primed CD8+ T cells; assay: Secondary culture in the absence of IL-2 (IL-2 withdrawal), live cell ratio, with or without oligomycin; assay type: cell-based, mouse
[2] = system: P14 naive CD44loCD8+ T cells; assay: In vitro priming of CFSE-labeled P14 naive CD8+ T cells with gp33-pulsed DCs, IL-2 and titrated rapamycin: cell counts, CFSE division, live cell ratio; assay type: cell-based, mouse; settings: day 8 after culture, 50 or 100 nM rapamycin
[3] = system: antigen-primed CD8+ T cells; assay: Oxygen consumption and lactate production assay, share of ATP from oxidative phosphorylation and glycolysis

Q: How did the “viable cells after IL-2 withdrawal” value ([1]; by 24 hours after IL-2 withdrawal) turn out when CO[C@H]1C[C@@H]2CC[C@@H](C)[C@@](O)(O2)C(=O)C(=O)N2CCCC[C@H]2C(=O)O[C@H]([C@H](C)C[C@@H]2CC[C@@H](O)[C@H](OC)C2)CC(=O)[C@H](C)/C=C(\C)[C@@H](O)[C@@H](OC)C(=O)[C@H](C)C[C@H](C)/C=C/C=C/C=C/1C [rapamycin] was run?
A: Approximately 100%

Q: What about the “cells remaining lived after IL-2 withdrawal” value ([1]; by 74 hours after withdrawal) of the same molecule?
A: more than 60%

Q: And the dead cells [2]?
A: less than 5%

Q: What about the “oxygen consumption increase versus IL-2 CD8+ T cells” value ([3]; cells collected 6 days after culture) of the same molecule?
A: 2 fold

Q: And the “ATP derived from oxidative phosphorylation metabolism” value ([3]; share of total ATP generation)?
A: more than 90%
